Measurements: patent US11519911B2, “ALX receptor ligands define a biochemical endotype for inflammation-based diseases” (THE BRIGHAM AND WOMEN'S HOSPITAL, INC., priority 2017, dated 2022)
Entries after “also recorded” stand apart in the source; their conditions may differ.

Columns and labels:
ALX/FPR2 receptors (ALX) [1] = biological target: T1, ALX/FPR2 receptors (ALX) (Homo sapiens, UniProt P25090); settings: high affinity cognate receptors; reference (16); cited from earlier work
T1 sequence (P25090 1-351): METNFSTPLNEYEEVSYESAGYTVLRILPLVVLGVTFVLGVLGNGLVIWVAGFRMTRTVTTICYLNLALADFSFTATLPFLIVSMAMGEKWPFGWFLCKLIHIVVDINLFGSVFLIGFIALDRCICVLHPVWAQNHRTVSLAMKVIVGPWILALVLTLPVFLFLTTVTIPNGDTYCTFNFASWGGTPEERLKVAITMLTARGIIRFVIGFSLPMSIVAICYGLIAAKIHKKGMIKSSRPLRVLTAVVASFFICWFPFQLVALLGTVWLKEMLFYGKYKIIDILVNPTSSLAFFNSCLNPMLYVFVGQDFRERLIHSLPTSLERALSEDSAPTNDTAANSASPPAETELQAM

ALX/FPR2 receptors (ALX) [2] = biological target: T1, ALX/FPR2 receptors (ALX); assay: ALX-dependent in vitro reporter assay: IL-8 production by A549 cells expressing human ALX receptor (ELISA); type: cell-based; design: expressed in transfected cells; host or cells: A549 human lung epithelial cells, stably transfected
Protocol: FIG. 6 A-D. SAA and 15-epi-LXA4 signaling via ALX receptors regulates production of the neutrophil chemoattractant IL-8 A549 human epithelial cells expressing human ALX receptors (A549^hALX) were exposed to BALF from HD, NSA, or SA subjects (24 h, 37° C., 5% CO2) and IL-8 levels were measured in the cell-free supernatant by ELISA (see Methods). (A) Mean levels of LXA4, 15-epi-LXA4 and SAA in BALF from n=15 subjects used for A549^hALX cell incubations are shown in stacked bar graphs and the relative proportions are noted in pie charts. (B) IL-8 production by A549^hALX cells was measured after incubation with saline control or SAA (2.5 ng/ml or 10 ng/ml) for 24 hours. (C) IL-8 production by A549^hALX cells was measured after 24 hours of exposure to BALF from HD (n=3), NSA (n=6) or SA (n=5) and is expressed as an increase relative to saline controls. Incubations with BALF without an increase in IL-8 production relative to saline control were assigned a value of zero. (D) A549^hALX epithelial cells were exposed to BALF from subjects with endogenous levels that were LXA4^highSAA^low (n=5) or LXA4^lowSAA^high (n=6) followed by exposure to exogenous 15-epi-LXA4 (100 nM). % Inhibition of IL-8 production after 15-epi-LXA4 exposure was calculated. *p<0.05, ****p<0.001 by (B) one-way ANOVA (C) Kruskal-Wallis test and (D) Mann-Whitney test. ALX, airway lipoxin A4 receptor; LXA4, lipoxin A4; 15-epi-LXA4, 15-epimer lipoxin A4; SAA, serum amyloid A; HD, healthy donors; NSA, non-severe asthma; SA, severe asthma; IL-8, interleukin-8; BALF, bronchoalveolar lavage fluid.
To determine the functional relationship for these ALX receptor ligands, we next turned to an ALX-dependent in vitro reporter assay that we have previously qualified in chronic obstructive pulmonary disease (18). A549 lung epithelial cells were stably transfected to express the human ALX/FPR2 receptor (hALX). […]
A549 transfected to stably express the human ALX receptor were used (as in (18)). […] IL-8 levels in the supernatants were measured by ELISA (R&D). […]

[3] = BALF ALX ligand levels after a single dose of intramuscular triamcinolone in asthma subjects; type: in vivo, human; settings: measured 3 to 6 weeks after, SA or NSA subjects
Protocol: Subjects 13 years of age and older with asthma and healthy control subjects were recruited between November 2012 and February 2015 by seven geographically dispersed, research centers in the USA. European Respiratory Society/American Thoracic Society guidelines were used to categorize subjects as SA or NSA (48). Control subjects were individuals who reported general health and were non-smokers with no history of lung disease, atopic disease or allergic rhinitis. BAL was performed with three 50 mL aliquots of warm saline, and BALF were recovered by hand suction. Subjects received intramuscular triamcinolone (1 mg/kg up to a maximum dose of 40 mg) and some subjects agreed to undergo a second bronchoscopy 3 to 6 weeks later and BAL samples were collected in the same manner. BAL cells were enumerated and differential leukocyte counts determined. Cell-free BALF supernatant was divided into several aliquots. One aliquot of BALF (1 ml) was directly mixed with iced methanol (2 ml, for 1:2, vol/vol) before storing at −80° C. The other aliquots were directly stored at −80° C. […]
LXA4 and 15-epi-LXA4 levels in the BALF were measured by ELISA (Neogen, Lexington, Ky.). […] SAA and ANXA1 levels were measured by ELISA in aliquots of BALF stored in the absence of methanol (SAA: Abazyme, Needham, Mass.; ANXA1: Cloud-Clone, Houston, Tex.). […]

## 15-epimer lipoxin A4 [15-epi-LXA4]
ALX/FPR2 receptors (ALX) [1]
  Kd: ~1 nM
ALX/FPR2 receptors (ALX) [2]; exogenous 15-epi-LXA4 100 nM, cells exposed to BALF
  Inhibition of IL-8 production by A549^hALX cells conditioned with BALF: inhibited A549^hALX cell IL-8 production
ALX/FPR2 receptors (ALX) [2]; exogenous 15-epi-LXA4 100 nM, compared with LXA4^highSAA^low BALF
  Inhibition of IL-8 production by A549^hALX cells conditioned with BALF from LXA4^lowSAA^high subjects: maximal inhibition of IL-8 production

## CCCCC[C@H](O)/C=C/C=C\C=C\C=C\[C@@H](O)[C@@H](O)CCCC(=O)O [LXA4, Lipoxin A4]
ALX/FPR2 receptors (ALX) [1]
  Kd: ~1 nM

## C[C@]12C=CC(=O)C=C1CC[C@H]1[C@@H]3C[C@@H](O)[C@](O)(C(=O)CO)[C@@]3(C)C[C@H](O)[C@@]12F [triamcinolone]
[3]
  Change in BALF levels of LXA4, 15-epi LXA4 and SAA: did not result in discernible changes; also recorded: not significantly altered

B1: SAA: acute phase protein, pro-inflammatory ALX peptide ligand; recombinant human SAA (Peprotech) (protein, UniProt P0DJI8 19-122, looked up)
Serum amyloid A-1 protein: RSFFSFLGEAFDGARDMWRAYSDMREANYIGSDKYFHARGNYDAAKRGPGGAWAAEVITDARENIQRFFGHGAEDSLADQAANEWGRSGKDPNHFRPAGLPEKY
ALX/FPR2 receptors (ALX) [2]; recombinant human SAA 0-10 ng/ml, 24 h, vs saline control
  IL-8 production by A549^hALX cells: concentration-dependent (0-10 ng/ml) increase in IL-8 production
